Here are results for 33 compounds from the METLIN SMRT retention time set (Domingo-Almenara et al. 2019).

This series can be described thus: gradient 5% acetonitrile 3 min, to 50% in 2 min, to 85% in 15 min, held 3 min, 100 µL/min. The settings on record: column: Zorbax Extend-C18 2.1 x 50 mm; eluents: water / acetonitrile, 0.1% formic acid. In a few lines:
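Retention times come from adduct peaks that were picked computationally and then checked by hand. The standards, pure and pooled in mixtures of ~100 molecules, were run on a Zorbax Extend-C18 column (2.1 × 50 mm, 1.8 μm) at 100 μL/min with water and acetonitrile, each with 0.1% formic acid. Detection was by quadrupole time-of-flight mass spectrometry in positive and negative ionization mode, with a dead volume of 40 μL and a dwell volume of 900 μL.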
The compound `Cc1c(Cl)cccc1NC(=O)NC1CCN(c2ccc(F)cc2)C1=O` (stereo not drawn) returned an RP-LC retention time of 864 s.

In the case of `CCOC(=O)C1C(=O)NC(N2CCN(Cc3ccccc3)CC2)=NC1c1ccco1` (stereo not drawn), the RP-LC retention time was 578 s.

Compound `COC(=O)c1ncn2c1C(=O)N(CCCc1ccccc1)C(C)(C(=O)NCc1ccccc1)C2` (stereo not drawn) yielded an RP-LC retention time of 761 s. `Cc1cccn2c(=O)nc(SCC(=O)NCc3ccco3)nc12` displayed an RP-LC retention time of 610 s. In the case of `CC(=O)N1CCc2cc(N3CC(C(=O)NCC4CCCO4)CC3=O)ccc21` (stereo not drawn), the RP-LC retention time worked out at 590 s. Then `CCOC(=O)c1c(C)[nH]c(C(=O)N2CCC(C(C)C(=O)NCc3ccc(N(C)C)cc3)CC2)c1C` (stereo not drawn), with 635 s; and `Cn1cccc1C(=O)N1C[C@@H]2C[C@H]1C[C@@H]2NC(=O)c1cccs1`, with 700 s.

`CN(C)c1ccc(C(=O)NC(Cc2ccccc2)c2nnc(N3CCCCC3)o2)cc1` (stereo not drawn) had an RP-LC retention time of 889 s. `CCc1cc(C(=O)NCCN2CCOCC2)nc2cc(-c3ccccn3)nn12` registered an RP-LC retention time of 592 s.

In turn, `COC(=O)COC(=O)c1cn(-c2cccc(F)c2)c(=O)c2ccccc12` had an RP-LC retention time of 938 s.

`CC1CN(c2ccc(Cl)cc2)c2nc3c(c(=O)n(C)c(=O)n3C)n2C1` (stereo not drawn): the RP-LC retention time stood at 885 s. `O=C(Nc1ccc2c(c1)N(C(=O)C1CCCO1)CC2)c1c(F)cccc1Cl` (stereo not drawn): the RP-LC retention time came to 731 s. Compound `CCOC(=O)C1=C(CN2CCN(C3CCCCC3)CC2)NC(=O)NC1c1ccc(OC)cc1` (stereo not drawn) showed an RP-LC retention time of 656 s. In turn, `CCn1ncn2cc(S(=O)(=O)NC(C)c3ccccc3)cc2c1=O` (stereo not drawn) had an RP-LC retention time of 838 s. `COc1cc(OC)cc(C(=O)N(C)CCc2noc(C3CCCCC3)n2)c1` yielded an RP-LC retention time of 926 s. `N#Cc1cccc(NC(=O)Cc2cn3cc(F)ccc3n2)c1` had an RP-LC retention time of 593 s. In turn, `CCC1CN(C(=O)N2CCC(C(=O)NCc3ccco3)CC2)c2cc(C)ccc2O1` (stereo not drawn) displayed an RP-LC retention time of 872 s. In the case of `CCc1ccc(NC(=O)N2CCC3(CC2)NC(=O)c2cc(C)ccc2N3C)cc1`, the RP-LC retention time was 874 s. In turn, `COC(=O)c1ccccc1NC(=O)CSc1cc(N2CCN(c3ccccc3F)CC2)ncn1` returned an RP-LC retention time of 1170 s. With `CCc1cc(=O)n(CC(=O)N(CC)c2ccccc2)c(N)n1`, the RP-LC retention time worked out at 628 s. `O=C(C1CCN(S(=O)(=O)c2cccc3nonc23)CC1)N1CCc2ccccc2C1` displayed an RP-LC retention time of 913 s. As for `COc1ncc(C(=O)NCc2ccc(Br)cc2)cn1`, the RP-LC retention time was determined as 773 s. `O=C(NCCS(=O)(=O)N1CCN(c2ncccn2)CC1)Nc1cccs1`: the RP-LC retention time turned out to be 664 s. Compound `Cc1ccc(-c2nc(C3CC(=O)N(c4ccc(F)cc4)C3)no2)cc1` (stereo not drawn) returned an RP-LC retention time of 1030 s. For the compound `COc1ccc(C(C)NC(=O)c2ccc3ncnc(N4CCCC4)c3c2)cc1` (stereo not drawn), the RP-LC retention time amounted to 646 s. On to `Cc1nc(N2CCN(c3ccccn3)CC2)nc2oc(-c3ccccc3)nc12`, for which the RP-LC retention time is 755 s. The compound `O=C(Nc1ccccc1F)C1CCN(S(=O)(=O)c2cc(C(=O)N3CCOCC3)cs2)CC1` yielded an RP-LC retention time of 742 s. Turning to `Cc1ccccc1-c1nc(-c2ccc(S(=O)(=O)N3CCCC3)cc2)no1`, the RP-LC retention time was found to be 1240 s. Compound `CN1C(=O)CSc2cnn(CC(=O)NC3CCCC3)c(=O)c21` registered an RP-LC retention time of 637 s. `CCN1CCN(CCNC(=O)CCCn2c3ccccc3c3cnn(C)c(=O)c32)CC1`: the RP-LC retention time came to 579 s.

In turn, `Cn1ncc2c3ccccc3n(CC(=O)N3CCN(c4ccccn4)CC3)c2c1=O` came in with an RP-LC retention time of 591 s. On to `CC(C)n1c(N2CCCN(C(=O)c3ccc(Br)o3)CC2)cc(=O)n(C(C)C)c1=O`, for which the RP-LC retention time came to 866 s. `CN(C)c1ccc(C(CNC(=O)c2ccccc2[N+](=O)[O-])N2CCOCC2)cc1` (stereo not drawn) returned an RP-LC retention time of 560 s.
